# Patent publication US8541363B2, “Pyruvamide compounds as inhibitors of dust mite group 1 peptidase allergen and their use” (St George's Hosptial Medical School, priority 2010, dated 2013)
# Read-outs that look alike come from different tables or passages of the source.
# Target: Der p 1 (Dermatophagoides pteronyssinus (European house dust mite), UniProt P08176)
# Assay: Der p 1 enzyme activity assay (FRET fluorogenic substrate)
# Type: biochemical
# Description: The fluorogenic substrate used for measuring Der p 1 proteolytic activity was 2-aminobenzoylvalylalanylnorleucylseryl-(3-nitro)tyrosinyl aspartamide.
# Test compounds were dissolved in dry DMSO and maintained at 4° C. as stock solutions until being diluted for use in screening assays. Final concentration of DMSO in all enzymatic assays was 0.5% v/v.
# Reaction mixtures were assembled in a 96-well plate format (Perkin Elmer Optiplate 96F, Perkin Elmer LAS, Seer Green, Buckinghamshire, UK) using a Perkin Elmer MultiPROBE II Plus HTS EX robot with Gripper attachment. […] Dithiothreitol (DTT, 10 μL/well, 1 mM final concentration) was then added together with 10 μL of Der p 1 dissolved at 2.5 μg/mL in reaction buffer supplemented with 1 mM DTT. […] The plate was immediately transferred to a fluorescence plate reader (Perkin Elmer Fusion Alpha-FP or Perkin Elmer Envision) equipped with a temperature-controlled carrier set at 30° C. and the reaction followed by excitation/emission at 330/420 nm.
# Inhibitory activity was analysed from progress curves of reactions in the presence of a range of inhibitor concentrations.
# Initial velocity in each well was converted to fractional activity by Equation 1: Fractional activity=(Initial rate at inhibitor concentration[X]/Initial rate at inhibitor concentration zero)*100 Equation 1:
# Then, IC50 was determined by fitting the data of fractional activity and inhibitor concentration to a 4-parameter logistic curve, using Equation 2: V=Vmin+[Vmax−Vmin]/[1+(X/IC50)Hillslope] […] Biological Data—Der p 1 Enzyme Assay
# [1] = threshold stated in text, read-out: Der p 1 IC50
# Sequence of Der p 1 (P08176 99-320): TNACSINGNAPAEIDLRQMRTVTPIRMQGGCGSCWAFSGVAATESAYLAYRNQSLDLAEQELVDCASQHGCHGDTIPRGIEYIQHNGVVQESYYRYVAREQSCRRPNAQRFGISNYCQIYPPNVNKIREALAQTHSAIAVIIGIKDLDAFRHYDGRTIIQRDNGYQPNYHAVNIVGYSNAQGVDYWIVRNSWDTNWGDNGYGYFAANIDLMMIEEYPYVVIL
SMILES,IC50 [1] [nM],IC50 (Der p 1 IC50) [nM]
C[C@H](NC(=O)[C@H](Cc1ccccc1)NC(=O)c1ccccc1)C(=O)NCC(=O)C(=O)N1CCC(N(C)C)CC1 [PVA-018],< 2000,
CC(C)[C@H](NC(=O)[C@H](C)NC(=O)[C@@H](NC(=O)c1ccccc1)C(C)(C)C)C(=O)C(=O)NCC(=O)N1CCN(C)CC1 [PVA-055],,< 20
CC(C)[C@H](NC(=O)[C@H](C)NC(=O)C(C)(C)NC(=O)c1ccccc1)C(=O)C(=O)NC1CCCCC1 [PVA-090],< 2000,
CC(C)[C@H](NC(=O)[C@H](C)NC(=O)[C@H](Cc1ccccc1)NC(=O)c1ccccc1)C(=O)C(=O)NCC(=O)N1CCN(C)CC1 [PVA-047],,< 20
CC(C)[C@H](NC(=O)[C@H](C)NC(=O)[C@@H](NC(=O)c1ccccc1)C(C)(C)C)C(=O)C(=O)N[C@@H]1CN2CCC1CC2 [PVA-120],,< 200
CC(C)[C@H](NC(=O)[C@H](C)NC(=O)[C@H](Cc1cccc2ccccc12)NC(=O)c1cccc2ccccc12)C(=O)C(=O)NCC(=O)N1CCN(C)CC1 [PVA-138],< 200,
CCCCC(NC(=O)[C@H](C)NC(=O)[C@H](Cc1ccccc1)NC(=O)c1ccccc1)C(=O)C(=O)N1CCCC1 (some centres unmarked) [PVA-006],< 2000,
Cc1cc(C(=O)N[C@H](C(=O)N[C@@H](C)C(=O)N[C@H](C(=O)C(N)=O)C(C)C)C(C)(C)C)[nH]n1 [PVA-148],< 200,
CC(C)[C@H](NC(=O)[C@H](C)NC(=O)C1CCCN1C(=O)c1ccccc1)C(=O)C(=O)NC1CCCCC1 (some centres unmarked) [PVA-101],< 200,
CC(C)[C@H](NC(=O)[C@H](C)NC(=O)[C@H](Cc1ccccc1)NC(=O)c1ccccc1)C(=O)C(=O)N[C@@H](C)c1ccccc1 [PVA-016],< 2000,
CC(C)[C@H](NC(=O)[C@H](C)NC(=O)[C@@H](NC(=O)c1ccccc1)C(C)(C)C)C(=O)C(=O)NCC(=O)N1CCc2ccccc2C1 [PVA-111],,< 20
CC(C)[C@H](NC(=O)[C@H](C)NC(=O)[C@@H](NC(=O)c1ccccc1)C(C)(C)C)C(=O)C(=O)NCC1CCN(C)CC1 [PVA-163],< 200,
CNC(=O)C(=O)[C@@H](NC(=O)[C@H](C)NC(=O)[C@@H](NC(=O)c1ccccc1)C(C)(C)C)C(C)C [PVA-117],< 200,
COc1cccc(CNC(=O)C(=O)[C@@H](NC(=O)[C@H](C)NC(=O)[C@H](Cc2ccccc2)NC(=O)c2ccncc2)C(C)C)c1 [PVA-160],< 200,
CC(C)[C@H](NC(=O)[C@H](C)NC(=O)[C@H](Cc1ccc(N2CCN(C)CC2)cc1)NC(=O)c1ccccc1)C(=O)C(=O)NCc1ccccc1 [PVA-198],< 200,
CC(C)[C@H](NC(=O)[C@H](C)NC(=O)[C@@H](NC(=O)C1CCN(C(C)C)CC1)C(C)(C)C)C(=O)C(=O)NCc1ccccc1 [PVA-172],< 200,
CC(C)[C@@H](NC(=O)[C@H](C)NC(=O)[C@@H](NC(=O)c1ccccc1)C(C)(C)C)C(=O)C(=O)NC1CCCCC1 [PVA-085],,< 200
CC(C)[C@H](NC(=O)[C@H](C)NC(=O)[C@@H](NC(=O)c1ccccc1)C(C)(C)C)C(=O)C(=O)NCc1ccnn1C [PVA-167],< 200,
CC(C)[C@H](NC(=O)[C@H](C)NC(=O)[C@H](Cc1ccccc1)NC(=O)c1n[nH]c2ccccc12)C(=O)C(=O)NCc1ccccc1 [PVA-113],< 200,
CC(=O)Nc1ccc(C(=O)N[C@H](C(=O)N[C@@H](C)C(=O)N[C@H](C(=O)C(=O)NC2CCCCC2)C(C)C)C(C)(C)C)cn1 [PVA-061],< 200,
CC(C)[C@H](NC(=O)[C@H](C)NC(=O)[C@@H](NC(=O)c1ccccc1)C(C)(C)C)C(=O)C(=O)N[C@H]1CCc2ccccc21 [PVA-110],< 200,
CC(C)[C@H](NC(=O)[C@H](C)NC(=O)[C@H](Cc1cccc2ccccc12)NC(=O)c1ccccc1)C(=O)C(=O)NCC(=O)N1CCN(C)CC1 [PVA-137],< 20,
CC(C)[C@H](NC(=O)[C@H](C)NC(=O)[C@@H](Cc1ccc(-c2ccccc2)cc1)NC(=O)c1ccccc1)C(=O)C(=O)NCc1ccccc1 [PVA-033],< 200,
CC(C)[C@H](NC(=O)[C@H](C)NC(=O)[C@@H](NC(=O)c1ccccc1)C(C)(C)C)C(=O)C(=O)NCc1ccc(Cl)cc1 [PVA-179],< 200,
CC(C)[C@H](NC(=O)[C@H](C)NC(=O)[C@@H](NC(=O)c1ccncn1)C(C)(C)C)C(=O)C(=O)NC1CCCCC1 [PVA-082],< 200,

# The next lines start with results.
IC50 [1] [nM],SMILES,IC50 (Der p 1 IC50) [nM]
< 200,CC(C)[C@H](NC(=O)[C@H](C)NC(=O)[C@@H](NC(=O)c1ccccc1)C(C)(C)C)C(=O)C(=O)NCc1ccc(OC(F)(F)F)cc1 [PVA-189],
< 200,CC(C)[C@H](NC(=O)[C@H](C)NC(=O)[C@@H](NC(=O)c1ccccc1)C(C)(C)C)C(=O)C(=O)NCc1cccc(Cl)c1 [PVA-191],
< 20,CC(C)[C@H](NC(=O)[C@H](C)NC(=O)[C@@H](NC(=O)c1ccccc1)C(C)(C)C)C(=O)C(=O)NCc1ccc(N2CCN(C)CC2)nc1 [PVA-195],
< 200,CC(C)[C@H](NC(=O)[C@H](C)NC(=O)[C@@H](NC(=O)c1ccnc(N2CCOCC2)c1)C(C)(C)C)C(=O)C(=O)NCc1ccccc1 [PVA-048],
< 200,CC(C)[C@H](NC(=O)[C@H](C)NC(=O)[C@@H](NC(=O)c1ccccc1)C(C)(C)C)C(=O)C(=O)NCc1ccc(C(C)(C)C)cc1 [PVA-180],
< 20,CC(C)[C@H](NC(=O)[C@H](C)NC(=O)[C@@H](NC(=O)c1ccccc1)C(C)(C)C)C(=O)C(=O)NCc1ccc(C#N)cc1 [PVA-192],
< 20,CC(C)[C@H](NC(=O)[C@H](C)NC(=O)[C@@H](NC(=O)c1cccc2nc[nH]c12)C(C)(C)C)C(=O)C(=O)NCc1ccccc1 [PVA-157],
< 20,CC(C)[C@H](NC(=O)[C@H](C)NC(=O)[C@@H](N1Cc2ccccc2C1=O)C(C)(C)C)C(=O)C(=O)NCc1ccc(N2CCN(C)CC2)cc1 [PVA-211],
< 200,CC(C)[C@H](NC(=O)[C@H](C)NC(=O)[C@@H](NC(=O)c1ccccc1)C(C)(C)C)C(=O)C(=O)NCc1ccccc1Cl [PVA-193],
< 20,CNS(=O)(=O)c1ccc(CNC(=O)C(=O)[C@@H](NC(=O)[C@H](C)NC(=O)[C@@H](NC(=O)c2ccccc2)C(C)(C)C)C(C)C)cc1 [PVA-197],
< 200,Cc1cc(C(=O)N[C@H](C(=O)N[C@@H](C)C(=O)N[C@H](C(=O)C(=O)NCc2ccccc2)C(C)C)C(C)(C)C)[nH]n1 [PVA-107],
< 20,Cc1ccc(CNC(=O)C(=O)[C@@H](NC(=O)[C@H](C)NC(=O)[C@@H](NC(=O)c2ccccc2)C(C)(C)C)C(C)C)cc1 [PVA-205],
< 200,CC(C)[C@H](NC(=O)[C@H](C)NC(=O)[C@@H](NC(=O)c1cnccn1)C(C)(C)C)C(=O)C(=O)NCc1ccccc1 [PVA-058],
< 20,CC(C)[C@H](NC(=O)[C@H](C)NC(=O)[C@@H](N1Cc2ccccc2C1=O)C(C)(C)C)C(=O)C(=O)NCc1ccc(CN(C)C)cc1 [PVA-210],
< 20,CC(C)[C@H](NC(=O)[C@H](C)NC(=O)[C@@H](NC(=O)c1ccccc1)C(C)(C)C)C(=O)C(=O)NCc1ccc(NC(N)=O)cc1 [PVA-194],
< 20,CC(C)[C@H](NC(=O)[C@H](C)NC(=O)[C@@H](NC(=O)c1ccccc1C(=O)O)C(C)(C)C)C(=O)C(=O)NCC(=O)N1CCN(C)CC1 [PVA-136],
< 200,CC(=O)Nc1cc(C(=O)N[C@H](C(=O)N[C@@H](C)C(=O)N[C@H](C(=O)C(=O)NCc2ccccc2)C(C)C)C(C)(C)C)ccn1 [PVA-064],
< 20,CC(C)[C@H](NC(=O)[C@H](C)NC(=O)[C@@H](NC(=O)c1cccc2ccccc12)C(C)(C)C)C(=O)C(=O)NCc1ccc(S(N)(=O)=O)cc1 [PVA-215],
< 200,CC(C)[C@H](NC(=O)[C@H](C)NC(=O)[C@@H](Cc1ccncc1)NC(=O)c1ccccc1)C(=O)C(=O)NC1CCCCC1 [PVA-036],
< 200,CC(C)[C@H](NC(=O)[C@H](C)NC(=O)[C@@H](NC(=O)c1ccc(C(=O)O)cc1)C(C)(C)C)C(=O)C(=O)NCC(=O)N1CCN(C)CC1 [PVA-131],
< 20,CC(C)[C@H](NC(=O)[C@H](C)NC(=O)[C@@H](NC(=O)c1ccccc1)C(C)(C)C)C(=O)C(=O)NCc1ccc(F)cc1 [PVA-178],
< 20,CC(C)[C@H](NC(=O)[C@H](C)NC(=O)[C@@H](NC(=O)c1ccccc1)C(C)(C)C)C(=O)C(=O)NCc1ccc(N2CCN(C)CC2)cc1 [PVA-162],
< 20,CNC(=O)c1ccc(CNC(=O)C(=O)[C@@H](NC(=O)[C@H](C)NC(=O)[C@@H](N2Cc3ccccc3C2=O)C(C)(C)C)C(C)C)cc1 [PVA-209],
< 20,CC(C)[C@H](NC(=O)[C@H](C)NC(=O)[C@@H](NC(=O)c1ccccc1)C(C)(C)C)C(=O)C(N)=O [PVA-118],
< 20,CC(C)[C@H](NC(=O)[C@H](C)NC(=O)[C@@H](NC(=O)c1cccc2ncccc12)C(C)(C)C)C(=O)C(=O)NCc1ccccc1 [PVA-150],
< 20,CC(C)[C@H](NC(=O)[C@H](C)NC(=O)[C@@H](NC(=O)c1ccccc1)C(C)(C)C)C(=O)C(=O)NCc1ccc(CN(C)C)cc1 [PVA-164],
< 20,CC(C)[C@H](NC(=O)[C@H](C)NC(=O)[C@@H](NC(=O)c1ccccc1)C(C)(C)C)C(=O)C(=O)NCc1ccc(S(N)(=O)=O)cc1 [PVA-135],
< 20,CC(C)[C@H](NC(=O)[C@H](C)NC(=O)[C@@H](Cc1ccccc1)NC(=O)c1ccncc1)C(=O)C(=O)NCc1ccccc1 [PVA-035],
